Experiments:
[1] = system: lipid droplet accumulation in TG/FA-treated hiPSC-Hep; test: hiPSC-Hep ER-stress (TG/FA) induced lipid droplet accumulation high-content assay, integrated spot signal (BODIPY 493/503); assay type: cell-based, human; conditions: Homo sapiens; for IC50: 10-point dose-response, pre-treatment then TG/FA 18 h, read-out: IC50, inhibition of lipid accumulation (integrated spot signal); for EC50: Figure S5 dose-response, read-out: EC50, inhibition of lipid droplet accumulation (black line: ISS)
Description: Cryopreserved hiPSC-derived hepatocytes (iCell Hepatocytes 2.0; Cellular Dynamics International Madison, WI) plated at a density of 36 K/well in 384-well on collagen I coated Corning Biocoat 384-well plates (BD Biosciences, 101306), were cultured to promote hepatic differentiation and maturation into hepatic-like cells as previously described. Hepatocytes were plated according to the manufacturer’s protocol in a volume of 50 µL/well using BioTek^TM Microflo^TM select dispenser (#7170011, BioTek Instruments) for high-throughput and high-content analysis assay (HT/HCA) drug discovery. After plating cells were cultured according to vendor specifications in a cell culture incubator at 37 °C, 5% CO2 for 3–4 h. Then, 40 µL spent medium was aspirated using multi-channel automated pipette handling system (Integra ViaFlo 96/384) and replaced with 40 µL (80% exchange) of fresh plating medium. Approximately 24 h post-plating 80% of medium was replaced every day thereafter. At day 5 of differentiation, 40 µL/well spent medium was replaced with maintenance medium (MM) consisting of William’s E medium (Thermo Fisher Scientific) supplemented with 0.1 µM dexamethasone and hepatocyte maintenance supplement pack (Thermo Fisher Scientific) for an additional 2–3 days before HCA. The overview of automated HT system for hiPSC-derived hepatocytes differentiation, staining and image analysis for phenotypic screening is depicted in Figure S2. Primary screening hit confirmation and dose response studies were performed on different batches of hiPSC-derived hepatocytes.
To induce hepatic triglycerides (TAG) accumulation, before staining, cells were treated with 20 μL of 2× FA mixture, consisting of different proportions of oleic acid (OA-BSA, 25 µM, Sigma, #O3008), palmitic acid (PA-BSA, 200 µM, Agilent Technologies, #102720100) and thapsigargin (TG, 1 µM, Abcam, #120286) with a total volume of 40 μL/well. The TG/FA mixture was dispensed with BioTek^TM Microflo^TM select dispenser (#7170011, BioTek Instruments) and incubated for 18 h. Next, to label TAG accumulation stored into cytoplasmic lipid droplets, upon treatment, living cells were washed two times with warm Dulbecco’s Phosphate-Buffered Saline 1X (PBS, Corning, #21-031CV) with a handheld 384-channel electronic pipette device and then incubated for 15 min with a lipophilic dye, BODIPY 493/503 (8 ug/mL Life technologies, #D3922-green), in PBS at 37 °C. BODIPY (493/503) has become the standard dye utilized by scientists to study lipid droplets in live cells. After three washes with PBS cells were fixed with 4% paraformaldehyde methanol-free (PFA, Electron Microscopy Science, #15710) in PBS for 15 min at room temperature (RT). Cell health was monitored by Hoechst 33342 (10 ug/mL, Molecular Probe, #H21492) staining in PBS for nuclear count. After TAG staining the 384-assay plates were loaded in an automated confocal microscope with Opera High Content Imaging System (PerkinElmer, Waltham, MA, USA). Dyes were excited and images were captured on the Hoechst 3342 and Alexa Fluor 488 channels and signals were collected with a long pass filter 410 and 505 nm, for nuclei and TAG, respectively, at objective 20× air objective for HCA. To capture enough cells (>600) for the analysis, eight fields per well were imaged. Hoechst 33342 fluorescence was used to identify the nuclear region and cell counts. To assess intracellular fat deposits, BODIPY 493/503 fluorescence intensity was measured inside the cytoplasm region.
For the HCA screen, compounds tested for their inhibitory effects, were used as single dose at a 10 μM final concentration of compound in DMSO in each well (0.1% DMSO) in 20 μL of maintenance medium. Prior to compound addition, 30 µL/well of medium was removed from hiPSC-Hep cells screening plates with ViaFlo ([…]). Pre-spotted 80 nL of 10 mM compound were diluted to 20 μM (0.2% DMSO) in 40 μL of maintenance medium in the source 384-well plate. […]

CDK4 = system: CDK4; parameters: method as in AstraZeneca data repository; conditions: median log of IC50/EC50/Ki/Kd annotations, highest value; ref AstraZeneca data repository; cited from earlier work
CDK1 = system: CDK1; parameters: method as in AstraZeneca data repository; conditions: median log of IC50/EC50/Ki/Kd annotations, highest value; ref AstraZeneca data repository; cited from earlier work
CDK2 gene expression = test: RT-qPCR gene expression in TG/FA-treated hiPSC-Hep; assay type: cell-based, human; conditions: 24 h pre-treatment then TG/FA 18 h; relative to TG/FA
Description: (§1) To explore the signaling partners triggered or altered by the drugs, we performed gene expression RT-qPCR. The hiPSC-Hep were pre-treated in a 24-well plate with the three compounds shown in Figure 7 for 24 h followed by TG/FA challenge for an additional 18 h and RNA from each treatment well was isolated. The pre-treatment paradigm was chosen to stay consistent with how the original HTS was performed. We analyzed several target gene expression levels in the C/EBP-EP300 pathway including CDK2, CDK4, C/EBPα and C/EBPβ, EP300, and diacylglycerol acyltransferase 2 (DGAT2).
(§2) RNA was isolated from hiPSC-derived hepatocytes using the RNeasy kit (Qiagen, Frederick) and subsequently subjected to DNase digestion (Qiagen). Total RNA was quantified using NanoDrop 8000 (Thermo Scientific). The quality of total RNA was assessed by the Agilent Bioanalyzer Nano chip (Agilent Technologies) and RNA integrity number (RIN) ranged from 9.7 to 10. Reverse transcription was performed using the high capacity cDNA reverse transcription kit (Applied Biosystems, Foster City, CA, USA) according to the manufacturer’s recommendation and the complementary DNA (cDNA) obtained used for real-time quantitative PCR. The reaction mixture (10 μL), containing 1 μL of cDNA template, 0.5 μL each of primer and probe (20×, Thermo Fisher Scientific) mix for the gene of interest plus the reference gene and TaqMan Universal PCR master mix (Applied Biosystems) was added to the opaque white 384-well plates and amplified as follows: after 2 min of initial incubation at 50 °C and 10 min of initial denaturation at 95 °C, 45 cycles at 95 °C for 15 s, 60 °C for 1 min for annealing and 1 sec at 72 °C for final extension were performed. Assays were designed to have primers/probes to span exon–exon junctions (Table S1). Direct detection of PCR products was monitored by measuring the fluorescence produced by the result of TaqMan probe hydrolysis after every cycle. All experiments were carried out in triplicate in a LightCycler 480 thermocycler (Roche Diagnostic). Relative gene expression from qPCR data between groups of samples were assessed using a ∆∆Cq method. To adjust for variations in the cDNA synthesis each gene was normalized to that of hypoxanthine phosphoribosyl transferase 1 (HPRT1] or GAPDH mRNA.

EP300 gene expression = test: RT-qPCR gene expression in TG/FA-treated hiPSC-Hep; assay type: cell-based, human; conditions: 24 h pre-treatment then TG/FA 18 h; relative to TG/FA
Description: as §1, §2

CDK4 gene expression = test: RT-qPCR gene expression in TG/FA-treated hiPSC-Hep; assay type: cell-based, human; conditions: 24 h pre-treatment then TG/FA 18 h, relative to TG/FA
Description: as §1, §2

SMILES | IC50 [1] | EC50 [1] | pXC50 CDK4 (CDK4) | pXC50 CDK1 (CDK1) | effect on CDK2 gene expression (CDK2 gene expression) | effect on EP300 gene expression (EP300 gene expression) | effect on CDK4 mRNA level (CDK4 gene expression) | CDK4 gene expression suppressed to (CDK4 gene expression; 5 µM)
Cc1ncc(-c2nc(Nc3ccc(N4CCN(C(=O)CO)CC4)cc3)ncc2F)n1C(C)C [C3] | 320 nM | 320 nM | 7.33 | 7.61 | no effect | no effect | no effect | –
CNC(=O)c1nn(C)c2c1C(C)(C)Cc1cnc(Nc3ccc(N4CCN(C)CC4)cc3)nc1-2 [C16, Milciclib] | 4600 nM | 4600 nM | 7.16 | 6.84 | overall increase | not significantly affected | – | ~34%
